Species: Rattus norvegicus
Experiment: DrugMatrix - Regimen: Daily Repeat
Assay type: toxicity, organism-based, Sprague-Dawley
Set-up: regimen Daily Repeat, gender Male, age 6-8 weeks
Conditions: in vivo, po, route oral GAVAGE, […]; for ABSOLUTE BASOPHIL / ABSOLUTE EOSINOPHIL / ABSOLUTE LYMPHOCYTE / ABSOLUTE MONOCYTE / ABSOLUTE SEGMENTED NEUTROPHIL / BASOPHIL / EOSINOPHIL / ERYTHROCYTE COUNT / HEMATOCRIT / HEMOGLOBIN / LEUKOCYTE COUNT / LYMPHOCYTE / MEAN CORPUSCULAR HEMOGLOBIN / MEAN CORPUSCULAR HEMOGLOBIN CONCENTRATION / MEAN CORPUSCULAR VOLUME / MONOCYTE / NEUTROPHIL / NUCLEATED RED BLOOD CELLS / PLATELET COUNT: tissue Blood; for ALANINE AMINOTRANSFERASE / ALBUMIN / ALKALINE PHOSPHATASE / ASPARTATE AMINOTRANSFERASE / BLOOD UREA NITROGEN / CARBON DIOXIDE / CHLORIDE / CHOLESTEROL / CREATINE PHOSPHOKINASE / CREATININE / GLUCOSE / LACTATE DEHYDROGENASE / LIPASE / PHOSPHORUS / POTASSIUM / SODIUM / TOTAL BILIRUBIN / TOTAL PROTEIN / URIC ACID: tissue Plasma
[1] = 100 mg/kg, 120 h, dose level Low, time 5 day
[2] = 972 mg/kg, 72 h, dose level High, time 3 day
[3] = 972 mg/kg, 120 h, dose level High, time 5 day

SMILES: CC(=O)Nc1ccc(O)cc1 [ACETAMINOPHEN]
- ABSOLUTE BASOPHIL [1]: 0 CELLS/uL
- ABSOLUTE EOSINOPHIL [1]: 65 CELLS/uL
- ABSOLUTE LYMPHOCYTE [1]: 8879.67 CELLS/uL
- ABSOLUTE MONOCYTE [1]: 40.33 CELLS/uL
- ABSOLUTE SEGMENTED NEUTROPHIL [1]: 548.33 CELLS/uL
- BASOPHIL [1]: 0%
- EOSINOPHIL [1]: 0.67%
- ERYTHROCYTE COUNT [1]: 5.47 x10E6/uL
- HEMATOCRIT [1]: 34.53%
- HEMOGLOBIN [1]: 13.27 G/DL
- LEUKOCYTE COUNT [1]: 9.53 x10E3/uL
- LYMPHOCYTE [1]: 93.67%
- MEAN CORPUSCULAR HEMOGLOBIN [1]: 24.27 pg
- MEAN CORPUSCULAR HEMOGLOBIN CONCENTRATION [1]: 38.43 G/DL
- MEAN CORPUSCULAR VOLUME [1]: 63.13 fL
- MONOCYTE [1]: 0.33%
- NEUTROPHIL [1]: 5.33%
- NUCLEATED RED BLOOD CELLS [1]: 0 /100WBC
- PLATELET COUNT [1]: 1237.33 x10E3/uL
- ALANINE AMINOTRANSFERASE [1]: 58.33 u/L
- ALBUMIN [1]: 4.3 G/DL
- ALKALINE PHOSPHATASE [1]: 341.67 u/L
- ASPARTATE AMINOTRANSFERASE [1]: 84 u/L
- BLOOD UREA NITROGEN [1]: 14 mg/dL
- CARBON DIOXIDE [1]: 27.33 mmol/L
- CHLORIDE [1]: 98.33 MEQ/L
- CHOLESTEROL [1]: 81.33 mg/dL
- CREATINE PHOSPHOKINASE [1]: 273 u/L
- CREATININE [1]: 0.18 mg/dL
- GLUCOSE [1]: 158.67 mg/dL
- LACTATE DEHYDROGENASE [1]: 79.67 u/L
- LIPASE [1]: 10 u/L
- PHOSPHORUS [1]: 9.17 mg/dL
- POTASSIUM [1]: 5.75 MEQ/L
- SODIUM [1]: 143.87 MEQ/L
- TOTAL BILIRUBIN [1]: 0.23 mg/dL
- TOTAL PROTEIN [1]: 6.27 G/DL
- URIC ACID [1]: 0.77 mg/dL
- ABSOLUTE BASOPHIL [2]: 0 CELLS/uL
- ABSOLUTE EOSINOPHIL [2]: 0 CELLS/uL
- ABSOLUTE LYMPHOCYTE [2]: 8609 CELLS/uL
- ABSOLUTE MONOCYTE [2]: 158.2 CELLS/uL
- ABSOLUTE SEGMENTED NEUTROPHIL [2]: 1212.8 CELLS/uL
- BASOPHIL [2]: 0%
- EOSINOPHIL [2]: 0%
- ERYTHROCYTE COUNT [2]: 5.94 x10E6/uL
- HEMATOCRIT [2]: 36.4%
- HEMOGLOBIN [2]: 13.62 G/DL
- LEUKOCYTE COUNT [2]: 9.98 x10E3/uL
- LYMPHOCYTE [2]: 85.6%
- MEAN CORPUSCULAR HEMOGLOBIN [2]: 22.9 pg
- MEAN CORPUSCULAR HEMOGLOBIN CONCENTRATION [2]: 37.44 G/DL
- MEAN CORPUSCULAR VOLUME [2]: 61.28 fL
- MONOCYTE [2]: 2%
- NEUTROPHIL [2]: 12.4%
- NUCLEATED RED BLOOD CELLS [2]: 0 /100WBC
- PLATELET COUNT [2]: 1006.4 x10E3/uL
- ALANINE AMINOTRANSFERASE [2]: 85 u/L
- ALBUMIN [2]: 4.4 G/DL
- ALKALINE PHOSPHATASE [2]: 536.6 u/L
- ASPARTATE AMINOTRANSFERASE [2]: 123.8 u/L
- BLOOD UREA NITROGEN [2]: 14 mg/dL
- CARBON DIOXIDE [2]: 31.2 mmol/L
- CHLORIDE [2]: 99.67 MEQ/L
- CHOLESTEROL [2]: 76.2 mg/dL
- CREATINE PHOSPHOKINASE [2]: 298.8 u/L
- CREATININE [2]: 0.19 mg/dL
- GLUCOSE [2]: 161 mg/dL
- LACTATE DEHYDROGENASE [2]: 128 u/L
- LIPASE [2]: 10.8 u/L
- PHOSPHORUS [2]: 10.82 mg/dL
- POTASSIUM [2]: 5.81 MEQ/L
- SODIUM [2]: 143.6 MEQ/L
- TOTAL BILIRUBIN [2]: 0.14 mg/dL
- TOTAL PROTEIN [2]: 6.04 G/DL
- URIC ACID [2]: 0.68 mg/dL
- ABSOLUTE BASOPHIL [3]: 0 CELLS/uL
- ABSOLUTE EOSINOPHIL [3]: 17.8 CELLS/uL
- ABSOLUTE LYMPHOCYTE [3]: 10212.2 CELLS/uL
- ABSOLUTE MONOCYTE [3]: 135.4 CELLS/uL
- ABSOLUTE SEGMENTED NEUTROPHIL [3]: 1674.6 CELLS/uL
- BASOPHIL [3]: 0%
- EOSINOPHIL [3]: 0.2%
- ERYTHROCYTE COUNT [3]: 6.63 x10E6/uL
- HEMATOCRIT [3]: 40.4%
- HEMOGLOBIN [3]: 14.86 G/DL
- LEUKOCYTE COUNT [3]: 12.04 x10E3/uL
- LYMPHOCYTE [3]: 85.2%
- MEAN CORPUSCULAR HEMOGLOBIN [3]: 22.46 pg
- MEAN CORPUSCULAR HEMOGLOBIN CONCENTRATION [3]: 36.82 G/DL
- MEAN CORPUSCULAR VOLUME [3]: 61 fL
- MONOCYTE [3]: 1.2%
- NEUTROPHIL [3]: 13.4%
- NUCLEATED RED BLOOD CELLS [3]: 0 /100WBC
- PLATELET COUNT [3]: 1437.6 x10E3/uL
- ALANINE AMINOTRANSFERASE [3]: 100 u/L
- ALBUMIN [3]: 4.46 G/DL
- ALKALINE PHOSPHATASE [3]: 485.6 u/L
- ASPARTATE AMINOTRANSFERASE [3]: 108.4 u/L
- BLOOD UREA NITROGEN [3]: 14.2 mg/dL
- CARBON DIOXIDE [3]: 29 mmol/L
- CHLORIDE [3]: 104 MEQ/L
- CHOLESTEROL [3]: 71.6 mg/dL
- CREATINE PHOSPHOKINASE [3]: 328.8 u/L
- CREATININE [3]: 0.17 mg/dL
- GLUCOSE [3]: 154 mg/dL
- LACTATE DEHYDROGENASE [3]: 199.2 u/L
- LIPASE [3]: 9.8 u/L
- PHOSPHORUS [3]: 13.5 mg/dL
- POTASSIUM [3]: 6.73 MEQ/L
- SODIUM [3]: 144.74 MEQ/L
- TOTAL BILIRUBIN [3]: 0.22 mg/dL
- TOTAL PROTEIN [3]: 6.42 G/DL
- URIC ACID [3]: 3.3 mg/dL

— ChEMBL document CHEMBL3885881, “DrugMatrix”
